From patent publication US20090029366A1 (priority 2007, published 2009)
Read-outs that look alike come from different tables or passages of the source.

Experiments:
Format in all cases: cell-based
human HCN1 [1] = molecular target: T1, human HCN1 (Homo sapiens, UniProt O60741)
T1 construct: expressed in transfected cells; host or cells: HEK-293H
T1 sequence (O60741 1-890): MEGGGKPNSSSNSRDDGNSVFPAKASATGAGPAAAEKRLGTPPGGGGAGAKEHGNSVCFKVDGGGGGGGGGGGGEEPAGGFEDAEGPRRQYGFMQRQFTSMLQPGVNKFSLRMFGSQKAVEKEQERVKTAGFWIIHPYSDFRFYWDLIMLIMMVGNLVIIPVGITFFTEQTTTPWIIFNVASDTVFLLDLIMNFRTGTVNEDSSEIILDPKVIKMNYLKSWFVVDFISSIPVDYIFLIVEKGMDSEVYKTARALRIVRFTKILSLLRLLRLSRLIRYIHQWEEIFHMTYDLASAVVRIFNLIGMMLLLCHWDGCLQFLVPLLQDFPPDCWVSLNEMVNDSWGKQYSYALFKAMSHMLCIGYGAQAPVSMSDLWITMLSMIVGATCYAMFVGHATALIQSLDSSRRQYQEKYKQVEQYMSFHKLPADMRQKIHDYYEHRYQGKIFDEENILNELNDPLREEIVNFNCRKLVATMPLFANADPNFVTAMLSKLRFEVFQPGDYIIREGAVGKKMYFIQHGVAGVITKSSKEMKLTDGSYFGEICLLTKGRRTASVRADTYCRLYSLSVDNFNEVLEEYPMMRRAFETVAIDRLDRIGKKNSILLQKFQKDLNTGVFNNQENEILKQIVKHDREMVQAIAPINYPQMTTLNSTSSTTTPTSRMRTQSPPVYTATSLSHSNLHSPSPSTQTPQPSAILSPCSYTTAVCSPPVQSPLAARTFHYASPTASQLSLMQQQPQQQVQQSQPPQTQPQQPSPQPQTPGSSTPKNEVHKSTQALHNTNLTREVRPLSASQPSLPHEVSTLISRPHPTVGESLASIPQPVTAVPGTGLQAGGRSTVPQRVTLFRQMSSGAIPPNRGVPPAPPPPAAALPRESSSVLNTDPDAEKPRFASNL

human HCN1 [2] = molecular target: T1, human HCN1; assay: Dose response of blockade of hyperpolarization (MPSD FLIPR), HCN1; conditions: HEK-293 clone
Procedure: (§1) HEK-293H cells stably expressing a human HCN1 channel were plated and incubated in HBSS essentially as described in Examples 3 and 5. CHO-K1 cells stably expressing a human HCN4 channel were plated and incubated in HBSS essentially as described in Example 6. Varying concentrations of ZD7288 were added to HBSS for each of the test wells to determine the dose response of cells expressing HCN1 or HCN4 channels. The percent inhibition of hyperpolarization was calculated for a single dose using the following equation:
(§2) The data were fit with a Hill equation as described by the ratio 1/(1+([test agent]/IC50)^k, where IC50 is the concentration of a test agent required to inhibit one-half of the maximum current and k is the Hill coefficient.
FIG. 10A depicts a typical dose response curve for a single HEK-293H HCN1 channel expressing clone in the presence of ZD7288. […] No statistical difference was found between the two means.

human HCN4 channel = molecular target: T2, human HCN4 channel (Homo sapiens, UniProt Q9Y3Q4); assay: Dose response of blockade of hyperpolarization (MPSD FLIPR), HCN4
T2 construct: expressed in transfected cells; host or cells: CHO-K1
T2 sequence (Q9Y3Q4 1-1203): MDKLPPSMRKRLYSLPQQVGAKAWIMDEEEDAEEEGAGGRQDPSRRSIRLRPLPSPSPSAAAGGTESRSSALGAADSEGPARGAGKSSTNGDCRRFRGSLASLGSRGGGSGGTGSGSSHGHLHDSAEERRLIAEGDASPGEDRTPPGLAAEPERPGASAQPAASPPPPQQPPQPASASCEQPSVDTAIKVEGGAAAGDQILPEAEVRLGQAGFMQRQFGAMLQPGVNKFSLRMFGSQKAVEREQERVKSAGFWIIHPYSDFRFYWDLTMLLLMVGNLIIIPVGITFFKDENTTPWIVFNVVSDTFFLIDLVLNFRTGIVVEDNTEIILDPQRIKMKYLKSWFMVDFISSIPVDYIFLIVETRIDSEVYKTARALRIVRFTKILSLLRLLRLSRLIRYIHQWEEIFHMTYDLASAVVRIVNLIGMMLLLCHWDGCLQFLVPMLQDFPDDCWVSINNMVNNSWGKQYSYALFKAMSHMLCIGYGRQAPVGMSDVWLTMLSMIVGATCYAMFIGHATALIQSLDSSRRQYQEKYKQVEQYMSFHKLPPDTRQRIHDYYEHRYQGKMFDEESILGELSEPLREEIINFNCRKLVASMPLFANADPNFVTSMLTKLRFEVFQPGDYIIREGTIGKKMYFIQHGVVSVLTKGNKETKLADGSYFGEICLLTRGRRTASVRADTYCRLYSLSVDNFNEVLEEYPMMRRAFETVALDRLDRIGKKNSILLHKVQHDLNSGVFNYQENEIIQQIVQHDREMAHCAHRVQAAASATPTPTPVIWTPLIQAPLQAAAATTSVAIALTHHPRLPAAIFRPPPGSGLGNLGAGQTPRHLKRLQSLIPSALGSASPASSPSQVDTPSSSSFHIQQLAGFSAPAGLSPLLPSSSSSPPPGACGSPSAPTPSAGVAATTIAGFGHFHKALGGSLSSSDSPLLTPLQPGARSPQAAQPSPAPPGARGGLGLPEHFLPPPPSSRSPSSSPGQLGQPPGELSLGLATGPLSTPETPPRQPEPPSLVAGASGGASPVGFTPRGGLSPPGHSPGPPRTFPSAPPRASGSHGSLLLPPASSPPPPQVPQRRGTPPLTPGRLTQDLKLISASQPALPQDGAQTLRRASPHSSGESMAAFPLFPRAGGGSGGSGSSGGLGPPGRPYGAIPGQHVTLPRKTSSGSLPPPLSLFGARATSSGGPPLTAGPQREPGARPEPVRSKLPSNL
Procedure: as §1, §2
Similarly, ZD7288 IC50 values on HCN4 channel were determined in a set of two experiments. […] No statistical difference was found between the two experiments.

Structure (SMILES): CCN(c1ccccc1)c1cc(=NC)n(C)c(C)n1.Cl [ZD7288]
- reversal of hyperpolarization induced by low sodium/potassium diluent (human HCN1 [1]): reversed
- IC50 (human HCN1 [2]; group 1, n=8, mean ± 0.2 μM, read-out: IC50 mean, group 1): 2.1 µM
- IC50 (human HCN1 [2]; group 2, n=12, mean ± 0.8 μM, read-out: IC50 mean, group 2): 2.9 µM
- IC50 (human HCN4 channel; CHO-K1, group 1, n=8, mean ± 2.31 μM, read-out: IC50 mean, group 1): 9.07 µM
- IC50 (human HCN4 channel; CHO-K1, group 2, n=8, mean ± 2.61 μM, read-out: IC50 mean, group 2): 9.06 µM
